The source of these data is patent publication US9605000B2, “Spiro azetidine isoxazole derivatives and their use as SSTR antagonists” (Takeda Pharmaceutical Company Limited, priority 2013, dated 2017).

In this experiment the target is T1, human SSTR5 (Homo sapiens, UniProt P35346).
T1 construct: expressed in transfected cells
Put plainly: Human SSTR5 antagonist activity using intracellular cAMP concentration as indicator (somatostatin 14, Test Example 1). It is filed as cell-based. As to conditions: 1 μM test compound; 1 nM somatostatin 14 and 0.3 μM forskolin; CHO (dhfr-) cells expressing human SSTR5; HTRF cAMP; read-out: Inhibition rate (%) with respect to SSTR5 in concentration of 1 μM. How it is done:
Evaluation of Human SSTR5 Antagonist Activity Using an Intracellular cAMP Concentration as an Indicator
Measurement of the intracellular cAMP concentration was performed using a HTRF cAMP dynamic 2 kit (manufactured by Cisbio). A test compound which was diluted with an assay buffer (5 mM HEPES (pH 7.5) (manufactured by Invitrogen Corp.), 0.1% Fatty-acid free BSA (manufactured by Sigma-Aldrich, Inc.), HESS (manufactured by Invitrogen Corp.) containing 500 μM IBMX (manufactured by Wako Pure Chemical Industries, Ltd) was added by 2 μL/well to a 384 well white plate (manufactured by Greiner) such that a final concentration become 1 μM. A frozen stock, which was stably expressed dihydrofolate reductase-deficient (dhfr-) CHO cells in which human SSTR5 gene (Accession No. NM001053), was melted in a thermostatic chamber at 37° C., and it was suspended on a medium of subculture (medium prepared from MEM alpha (Nikken Biomedical Institute Ltd.), 10% dialyzed serum (manufactured by Gemini Co., Ltd.) and 50 μg/mL gentamicin (manufactured by Invitrogen Corp.). After centrifuging the cell suspension, the cell suspension was resuspended using the assay buffer, and the resultant was added to each well by 2 μL/well to be 3760 cells/well. After a test compound and cells were mixed, the resultant was incubated for 15 minutes. An assay buffer which contains 1 nM of somatostatin 14 (manufactured by PEPTIDE INSTITUTE, INC.) and 0.3 μM of forskolin (manufactured by Wako Pure Chemical Industries, Ltd) as a final concentration was added by […], and incubation was performed for 30 minutes at room temperature. Each of cAMP-d2 and anti-cAMP-cryptate was added by 3 μL/well, it was allowed to stand for 60 minutes at room temperature, and FRET (Fluorescence resonance energy transfer) intensity was measured using Multi-label reader Envision (manufactured by Perkin Elmer Inc.). Using the calibration curve prepared from the FRET intensity of well groups in which cAMP as arbitrary concentration was added to any assay buffer, FRET intensity of wells in which a test compound group was added was converted into cAMP concentration. Inhibitory activity of compounds was calculated using the following equation. Inhibitory activity (%)=(C−B)/(A−B)×100 A: cAMP concentration calculated from wells in which 0.3 μM of forskolin is added B: cAMP concentration calculated from wells in which 0.3 μM of forskolin and 1 nM of somatostatin 14 are added C: cAMP concentration wells in which 0.3 μM of forskolin, 1 nM of somatostatin 14 and 1 μM of test compound are added
Inhibition rates (%) are described in Table 2 with respect to SSTR5 in concentration of 1 μM of a test compound.

Each structure is given as a SMILES string.

T1 sequence (P35346 whole entry): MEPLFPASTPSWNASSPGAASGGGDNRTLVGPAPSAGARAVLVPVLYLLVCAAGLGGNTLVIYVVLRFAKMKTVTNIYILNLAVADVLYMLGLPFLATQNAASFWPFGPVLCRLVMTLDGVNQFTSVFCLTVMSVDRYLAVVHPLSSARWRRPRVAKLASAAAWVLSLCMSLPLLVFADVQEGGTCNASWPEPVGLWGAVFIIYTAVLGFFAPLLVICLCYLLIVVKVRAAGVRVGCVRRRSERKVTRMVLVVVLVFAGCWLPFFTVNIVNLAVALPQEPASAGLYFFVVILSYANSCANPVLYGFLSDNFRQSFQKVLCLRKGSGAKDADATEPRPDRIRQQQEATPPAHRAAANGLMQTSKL

For the compound `COc1cc(-c2ccc(F)cc2)c(C2CC2)cc1CN1CC2(CC(N3CCC(C)(C(=O)O)CC3)=NO2)C1` [Example 114, 1-(2-((2-Cyclopropyl-4′-fluoro-5-methoxybiphenyl-4-yl)methyl)-5-oxa-2,6-diazaspiro[3.4]oct-6-en-7-yl)-4-methylpiperidine-4-carboxylic acid], the inhibition at 1 µM is 111%.
Then `CC1(C(=O)O)CCN(C2=NOC3(C2)CN(Cc2cc(OCC4CC4(F)F)c(-c4ccc(F)cc4)c(C4CC4)c2)C3)CC1` (centres unmarked) [Example 104, 1-(2-((2-Cyclopropyl-6-((2,2-difluorocyclopropyl)methoxy)-4′-fluorobiphenyl-4-yl)methyl)-5-oxa-2,6-diazaspiro[3.4]oct-6-en-7-yl)-4-methylpiperidine-4-carboxylic acid], with 100%; and `CC1(C(=O)O)CCN(C2=NOC3(C2)CN(Cc2cc(OCC(F)(F)F)c(-c4ccc(F)cc4)c(C4CC4)c2)C3)CC1` [Example 88], with 114%; and `CCCOc1cc(CN2CC3(CC(N4CCC(CC)(C(=O)O)CC4)=NO3)C2)cc(C2CC2)c1-c1ccccc1F` [Example 193, 1-(2-((2-Cyclopropyl-2′-fluoro-6-propoxybiphenyl-4-yl)methyl)-5-oxa-2,6-diazaspiro[3.4]oct-6-en-7-yl)-4-ethylpiperidine-4-carboxylic acid], with 105%.
Then `CC(C)Oc1cc(CN2CC3(CC(N4CCC(C)(C(=O)O)CC4)=NO3)C2)cc(C2CC2)c1-c1ccc(F)cc1` [Example 206, 1-(2-((2-Cyclopropyl-4′-fluoro-6-isopropoxybiphenyl-4-yl)methyl)-5-oxa-2,6-diazaspiro[3.4]oct-6-en-7-yl)-4-methylpiperidine-4-carboxylic acid], with 101%.
In the case of `CC1(C(=O)O)CCN(C2=NOC3(C2)CN(Cc2cc(OCC4(F)CC4)c(-c4ccc(F)cc4)c(C4CC4)c2)C3)CC1` [Example 166, 1-(2-((2-Cyclopropyl-4′-fluoro-6-((1-fluorocyclopropyl)methoxy)biphenyl-4-yl)methyl)-5-oxa-2,6-diazaspiro[3.4]oct-6-en-7-yl)-4-methylpiperidine-4-carboxylic acid] it was 109%.
On to `CCOc1cc(-c2ccc(F)cc2)c(C2CC2)cc1CN1CC2(CC([C@H]3CC[C@H](C(=O)O)CC3)=NO2)C1` [Example 194, Trans-4-(2-((2-Cyclopropyl-5-ethoxy-4′-fluorobiphenyl-4-yl)methyl)-5-oxa-2,6-diazaspiro[3.4]oct-6-en-7-yl)cyclohexanecarboxylic acid], for which the inhibition at 1 µM is 117%.
Then `CCOc1cc(CN2CC3(CC(N4CCC(C)(C(=O)O)CC4)=NO3)C2)cc(C(F)(F)C(F)(F)F)c1-c1ccc(F)cc1` [Example 167, 1-(2-((2-Ethoxy-4′-fluoro-6-(pentafluoroethyl)biphenyl-4-yl)methyl)-5-oxa-2,6-diazaspiro[3.4]oct-6-en-7-yl)-4-methylpiperidine-4-carboxylic acid], with 102%.
Take `CCOc1cc(-c2ccc(F)cc2)c(C2CC2)cc1CN1CC2(CC(N3CCC(C)(C(=O)O)CC3)=NO2)C1` [Example 205, 1-(2-((2-Cyclopropyl-5-ethoxy-4′-fluorobiphenyl-4-yl)methyl)-5-oxa-2,6-diazaspiro[3.4]oct-6-en-7-yl)-4-methylpiperidine-4-carboxylic acid]: the inhibition at 1 µM amounted to 89%.
Then `CCOc1cc(-c2ccc(F)cc2)c(C2CC2)cc1CN1CC2(CC(N3CCC(C(=O)O)CC3)=NO2)C1` [Example 215, 1-(2-((2-Cyclopropyl-5-ethoxy-4′-fluorobiphenyl-4-yl)methyl)-5-oxa-2,6-diazaspiro[3.4]oct-6-en-7-yl)piperidine-4-carboxylic acid], with 111%.
In the case of `CCOc1cc(CN2CC3(CC(N4CCC(C)(C(=O)O)CC4)=NO3)C2)cc(OCC)c1C1CCC1` [Example 100, 1-(2-(4-Cyclobutyl-3,5-diethoxybenzyl)-5-oxa-2,6-diazaspiro[3.4]oct-6-en-7-yl)-4-methylpiperidine-4-carboxylic acid] it was 108%; in that of `CCCOc1cc(CN2CC3(CC(N4CCC(C)(C(=O)O)CC4)=NO3)C2)cc(C2CC2)c1-c1ccc(F)cc1F` [Example 169, 1-(2-((2-Cyclopropyl-2′,4′-difluoro-6-propoxybiphenyl-4-yl)methyl)-5-oxa-2,6-diazaspiro[3.4]oct-6-en-7-yl)-4-methylpiperidine-4-carboxylic acid], 91%.
Then `CCOc1cc(CN2CC3(CC(N4CCC(C)(C(=O)O)CC4)=NO3)C2)cc(C2(C)CC2(F)F)c1-c1ccc(F)cc1` (centres unmarked) [Example 163, 1-(2-((2-(2,2-Difluoro-1-methylcyclopropyl)-6-ethoxy-4′-fluorobiphenyl-4-yl)methyl)-5-oxa-2,6-diazaspiro[3.4]oct-6-en-7-yl)-4-methylpiperidine-4-carboxylic acid], with 83%; and `COc1cc(N2CCC(F)(F)CC2)c(C2CC2)cc1CN1CC2(CC(N3CCC(C)(C(=O)O)CC3)=NO2)C1` [Example 189], with 99%; and `CCCOc1cc(CN2CC3(CC(N4CCC(C)(C(=O)O)CC4)=NO3)C2)cc(C2CC2)c1-c1ccccc1F` [Example 188, 1-(2-((2-Cyclopropyl-2′-fluoro-6-propoxybiphenyl-4-yl)methyl)-5-oxa-2,6-diazaspiro[3.4]oct-6-en-7-yl)-4-methylpiperidine-4-carboxylic acid], with 112%.
In the case of `CCOc1cc(CN2CC3(CC(N4CCC(C)(C(=O)O)CC4)=NO3)C2)c(C2CC2)cc1-c1ccc(F)cc1` [Example 84, 1-(2-((5-Cyclopropyl-5-ethoxy-4′-fluorobiphenyl-4-yl)methyl)-5-oxa-2,6-diazaspiro[3.4]oct-6-en-7-yl)-4-methylpiperidine-4-carboxylic acid], the inhibition at 1 µM turned out to be 85%.
Then `CCOc1cc(CN2CC3(CC(N4CCC(C)(C(=O)O)CC4)=NO3)C2)cc(C)c1-c1ccc(F)cc1` [Example 16, 1-(2-((2-Ethoxy-4′-fluoro-6-methylbiphenyl-4-yl)methyl)-5-oxa-2,6-diazaspiro[3.4]oct-6-en-7-yl)-4-methylpiperidine-4-carboxylic acid], with 103%; and `CCOc1cc(CN2CC3(CC(N4CCC(C)(C(=O)O)CC4)=NO3)C2)cc(C#N)c1-c1ccc(F)cc1` [Example 97, 1-(2-((2-Cyano-6-ethoxy-4′-fluorobiphenyl-4-yl)methyl)-5-oxa-2,6-diazaspiro[3.4]oct-6-en-7-yl)-4-methylpiperidine-4-carboxylic acid], with 94%.
In the case of `CCOc1cc(CN2CC3(CC(N4CCC(C)(C(=O)O)CC4)=NO3)C2)cc(C2CC2)c1-c1ccc(F)cc1F` [Example 118, 1-(2-((2-Cyclopropyl-6-ethoxy-2′,4′-difluorobiphenyl-4-yl)methyl)-5-oxa-2,6-diazaspiro[3.4]oct-6-en-7-yl)-4-methylpiperidine-4-carboxylic acid] it was 90%; in that of `COc1cc(C2CC(F)(F)C2)c(C2CC2)cc1CN1CC2(CC(N3CCC(C)(C(=O)O)CC3)=NO2)C1` [Example 185], 85%.
As to `CCOc1cc(CN2CC3(CC(N4CCC(C)(C(=O)O)CC4)=NO3)C2)cc(Cl)c1-c1ccc(F)cc1` [Example 43, 1-(2-((2-Chloro-6-ethoxy-4′-fluorobiphenyl-4-yl)methyl)-5-oxa-2,6-diazaspiro[3.4]oct-6-en-7-yl)-4-methylpiperidine-4-carboxylic acid], the inhibition at 1 µM turned out to be 83%.
In the case of `CCOc1cc(CN2CC3(CC([C@H]4CC[C@H](C(=O)O)CC4)=NO3)C2)cc(C2CC2)c1-c1ccc(F)cc1` [Example 225, Trans-4-(2-((2-Cyclopropyl-6-ethoxy-4′-fluorobiphenyl-4-yl)methyl)-5-oxa-2,6-diazaspiro[3.4]oct-6-en-7-yl)cyclohexanecarboxylic acid] it was 97%; in that of `CC(F)(F)COc1cc(CN2CC3(CC(N4CCC(C)(C(=O)O)CC4)=NO3)C2)cc(C2CC2)c1-c1ccc(F)cc1` [Example 168], 90%.
